Measurements published in US11723589B2 (The General Hospital Corporation, priority 2010, dated 2023).
Values joined by “and” are separate entries in the source; they are usually repeats but may differ in a detail not shown here. Identical values can stand only once. “Also recorded” adds a separate entry of the source.

How the values were obtained:
[1] = system: Male Sprague-Dawley rats; test: Plethysmography during isoflurane general anesthesia; conditions: for Change in mean RR: after vs before methylphenidate 5 mg/kg IV
Text: Plethysmography. Rats were placed in a custom built plethysmography chamber and the isoflurane concentration in the chamber was maintained at 1.5%. […] A differential pressure transducer and demodulator (Models CD15 and MP45-14-871; Validyne Engineering, Northridge, Calif.) were used to convert the chamber pressure to an analog signal. The signal was high pass filtered at 15 sec, acquired at 100 Hz, and analyzed in four second epochs using a USB-6009 data acquisition board (National Instruments, Austin, Tex.) and LabView Software (version 8.5 for Macintosh). Chamber carbon dioxide levels were maintained at or less than 0.5% in the open flow configuration. A heating pad was used to warm the rat from beneath. Chamber air temperature and relative humidity were measured with a thermometer-hygrometer (Fisher Scientific, Pittsburgh, Pa.) and used to estimate tidal volumes during intermittent chamber closure using methods described by Drorbaugh et al.^16

[2] = system: Male Sprague-Dawley rats; test: Arterial blood gas analysis during isoflurane general anesthesia; format: in vivo, rat
Protocol: (§1) Arterial Blood Gas and Hemodynamic Recordings. Rats with femoral artery catheters (Charles River Laboratories, Wilmington, Mass.) were placed in the anesthetizing chamber after lateral tail vein IV catheter placement. The isoflurane dose was kept constant at 1.5%. Mean arterial blood pressure and heart rate were measured using a pressure transducer (TruWave, Edwards Life Sciences, Irvine, Calif.) interfaced with a custom-built amplifier (AD620 operational amplifier, Jameco Electronics, Belmont, Calif.). […] Samples were promptly analyzed using CG4+ cartridges in a Vetscan iStat 1 (Abaxis, Union City, Calif.) blood gas analyzer.
To provide a conservative check on the assessments made by the 95% confidence intervals and the parametric tests and non-parametric tests were also used to assess statistical significance. The Mann-Whitney test was used to test the hypothesis that methylphenidate hastens time to emergence from isoflurane general anesthesia, and to test the dose-dependence of methylphenidate on time to righting during continuous isoflurane general anesthesia. A paired t-test was used to test the hypothesis that methylphenidate produces a respiratory alkalosis during isoflurane general anesthesia. The inventors used the two-sided Kolmogorov-Smirnov test with a Bonferonni correction to compare spectra in animals before and after receiving methylphenidate. The inventors considered a result to be statistically significant based on the 95% confidence intervals comparing two groups if zero was not in the interval, based on hypothesis tests if the p-values were less than 0.05 or in the case of the Bayesian analyses, if the relevant posterior probability was greater than 0.95.

[3] = system: Male Sprague-Dawley rats; test: Time to emergence after a standardized isoflurane general anesthetic; format: in vivo, rat
Text: Animal Care and Use. Animal studies were approved by the Subcommittee on Research Animal Care, Massachusetts General Hospital, Boston, Mass. Male Sprague-Dawley rats (Charles River Laboratories, Wilmington, Mass.) weighing 351-565 grams were used. […] Separate groups of animals were used for the electroencephalogram (4 rats), plethysmography (4 rats), and blood gas studies (6 rats). In animals that underwent multiple experiments, each animal was provided with at least 3 days of rest between experiments. Animals were kept on a standard day-night cycle (lights on at 7 AM, and off at 7 PM), and all experiments were performed during the day.
Preparation and Delivery of Drugs. […] Droperidol was diluted in normal saline to a final volume of 0.5 ml prior to administration. […]

[4] = system: Male Sprague-Dawley rats; test: Return of righting during continuous isoflurane general anesthesia; format: in vivo, rat
Text: Anesthetizing Protocol. Rats were anesthetized in an induction chamber with 2-3% isoflurane in oxygen prior to placement of a lateral tail vein intravenous catheter (24 gauge, 19 mm). A rectal temperature probe was inserted and the animal was placed in a cylindrical acrylic anesthetizing chamber. The chamber was custom-built and equipped with ports for anesthetic gas delivery, sampling, and scavenging, as well as intravenous drug administration. A heating pad was placed under the chamber to keep the animal warm, and the body temperature was kept between 36.5° C. and 37.4° C.
The rat was positioned supine in the anesthetizing chamber and the inhaled concentration of isoflurane was initially fixed at 2.0% for 20 minutes, then reduced to 0.8% over 15-20 minutes, and then maintained at 0.8% for 40 minutes. If the rat made any purposeful movement, the isoflurane concentration was increased by 0.1% and maintained for another 40 minutes. This process was repeated until the final dose of isoflurane sufficient to maintain loss of righting reflex was established, and this dose was administered throughout the remainder of the experiment. This protocol was based on previously published methods described by Alkire et al.^4,11 After the final 40-minute equilibration period, normal saline (2 ml) was administered and the rectal temperature probe was removed. Five minutes later, methylphenidate was administered.
Prism 4.03 (Graphpad Software, San Diego, Calif.) and Matlab (Mathworks, Natick, Mass.) were used for statistical analysis and where possible, results are reported in terms of 95% confidence intervals based on z-tests, t-tests or Mann-Whitney tests. […] For this computation the inventors assumed a binomial model as the sampling density or likelihood function for the propensity of animals in a given group to have return of the righting response. The inventors took as the prior density for each group the uniform density on the interval (0, 1) because it is uninformative. Because of the conjugacy between the prior and the likelihood the posterior density for each group is a beta density.^17 The posterior densities for the differences in the proportion of animals that had return of righting were then computed by using standard Matlab simulation procedures. Instead of p-values for the Bayesian analyses the inventors computed the posterior probability that the propensity to right was greater in on group compared to the other.

[5] = system: Male Sprague-Dawley rats; test: Hemodynamic recordings (mean arterial blood pressure, heart rate) during isoflurane general anesthesia; format: in vivo, rat; conditions: individual animals, isoflurane 1.5%
Protocol: as §1

[6] = system: rats; test: Restoration of righting and EEG during continuous propofol anesthesia; format: in vivo, rat; conditions: MPH 5 mg/kg IV, continuous propofol infusion
Protocol: For the second experiment, 2 IV catheters were placed and a continuous propofol infusion was started in rats with pre-implanted EEG electrodes. After establishing the minimum plasma concentration of propofol required to maintain loss of righting, the second IV catheter was flushed with NS, and 5 minutes later MPH (5 mg/kg) was administered.

[7] = biological target: norepinephrine transporter (Homo sapiens, UniProt P23975); conditions: read-out: Ki, norepinephrine transporter; cited from earlier work
Chain of norepinephrine transporter (P23975 whole entry): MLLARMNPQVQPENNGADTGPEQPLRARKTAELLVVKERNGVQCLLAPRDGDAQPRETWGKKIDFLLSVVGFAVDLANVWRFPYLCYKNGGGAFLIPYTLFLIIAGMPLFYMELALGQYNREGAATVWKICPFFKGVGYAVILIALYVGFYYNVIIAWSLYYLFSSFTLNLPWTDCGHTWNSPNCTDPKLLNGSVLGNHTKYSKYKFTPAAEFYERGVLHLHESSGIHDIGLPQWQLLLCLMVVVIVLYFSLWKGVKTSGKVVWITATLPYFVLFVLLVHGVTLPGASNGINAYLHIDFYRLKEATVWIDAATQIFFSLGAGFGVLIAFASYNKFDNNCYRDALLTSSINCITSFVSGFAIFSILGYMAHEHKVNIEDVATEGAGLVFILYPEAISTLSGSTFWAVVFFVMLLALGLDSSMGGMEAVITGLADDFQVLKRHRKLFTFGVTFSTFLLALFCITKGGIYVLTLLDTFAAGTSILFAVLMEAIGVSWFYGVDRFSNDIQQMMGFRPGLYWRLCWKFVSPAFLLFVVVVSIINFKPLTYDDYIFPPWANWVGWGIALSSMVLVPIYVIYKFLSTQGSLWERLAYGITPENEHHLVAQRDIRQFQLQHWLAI

[8] = system: rats; test: D-MPH versus L-MPH reversal of isoflurane anesthesia, loss of righting reflex (LORR); format: in vivo, rat; conditions: for reversal of isoflurane-induced general anesthesia: intravenous, rat animal model; for rats with restoration of consciousness: intravenous dose of 0.5 mg/kg; for rats with restoration of consciousness / rate of % recovery of consciousness / time to emergence, D-MPH compared with L-MPH: isoflurane anesthesia; for rate of % recovery of consciousness / time to emergence, D-MPH compared with L-MPH: FIG. 7
Text: Pure D-MPH (Focalin) is currently available in oral form for Attention Deficit Hyperactivity Disorder (ADHD), but it is not available for intravenous use.

[9] = system: rats; test: Time to emergence after a single dose of propofol; format: in vivo, rat; conditions: propofol 8 mg/kg IV, MPH 5 mg/kg IV 45 sec later; mean±SE; n=6
Protocol: For the first experiment, a lateral tail vein IV catheter was placed in rats under isoflurane anesthesia. […] Time to emergence was defined as the time until restoration of righting occurred. Statistical analysis was performed using the Mann-Whitney test.

[10] = system: Male Sprague-Dawley rats; test: Electroencephalogram recording and spectral analysis during continuous isoflurane; format: in vivo, rat; conditions: isoflurane 1.0%
Protocol: Electroencephalogram electrode placement, recording, and spectral analysis. Extradural electroencephalogram electrodes were surgically implanted at least 7 days prior to recording. General anesthesia was induced with xylazine (5-10 mg/kg IP) and ketamine (50-100 mg/kg IP), and supplemented with isoflurane (1-2%). A microdrill was used to make four holes at the following stereotactic coordinates: A0L0, A6L3, A6L-3, and A10L2 relative to the lambda.^12 Polytetrafluoroethylene coated, 200 μm diameter stainless steel electrode wires (A-M Systems, Sequim, Wash.) were inserted and secured with small stainless steel screws, and permanently fixed with dental acrylic cement. Carprofen (5 mg/kg SC) was administered for analgesia on the day of surgery, as well as on post-operative days 1, and 2. The potential difference between electrodes A0L0 and A6L3, or between electrodes A0L0 and A6L-3 (whichever gave less motion artifact), was referenced to A10L2 and recorded using a QP511 Quad AC Amplifier System (Grass Instruments, West Warwick, R.I.) and a USB-6009 14-bit data acquisition board (National Instruments, Austin, Tex.). Data was filtered between 0.3-100 Hz. No line filter was used. The sampling rate was 512 Hz. After baseline recordings were taken for 10 minutes while awake, rats were anesthetized with isoflurane and placed in the anesthetizing chamber. […] Therefore the inventors performed the electroencephalogram experiments in the prone position with the isoflurane dose fixed at 1.0%. These modifications allowed us to minimize electroencephalogram motion artifacts without restraining the animals. After a minimum isoflurane exposure of 40 minutes, normal saline was administered and the temperature probe was removed. Five minutes later, methylphenidate was administered. Spectral analysis was performed using Matlab 7.11 (Mathworks, Natick, Mass.) and the Chronux software (Cold Spring Harbor, N.Y.). 13 Spectrograms were calculated using sliding windows of 2 sec duration stepped through 0.05 sec. For each window, multitaper spectrum estimation was performed using 5 tapers. […]

[11] = children treated with racemic methylphenidate; cited from earlier work
[12] = system: rats; conditions: 3 mg/kg of droperidol; cited from earlier work
[13] = system: mice; conditions: cited from earlier work
[14] = system: mice; conditions: uninstrumented mice, rotating anesthetizing chamber; cited from earlier work
[15] = individual animals pretreated with droperidol (0.5 mg/kg IV), isoflurane 1.5%
[16] = individual animals pretreated with normal saline, isoflurane 1.5%
[17] = arterial blood 15 minutes after methylphenidate, isoflurane 1.5%, n = 6
[18] = after vs before methylphenidate 5 mg/kg IV, listed as Methylphenidate

COC(=O)[C@H](c1ccccc1)[C@H]1CCCCN1 (racemic) [methylphenidate]
Change in mean RR [1, 15]: +4.4 breaths per minute and +2.2 breaths per minute and +3.6 breaths per minute and +4.9 breaths per minute | Change in mean RR [1, 16]: +29.2 breaths per minute and +9.8 breaths per minute and +50.36 breaths per minute and +18.9 breaths per minute | RR after 5 mg/kg IV Methylphenidate (mean) [1, 15]: 86.3 breaths per minute and 78.0 breaths per minute and 84.1 breaths per minute and 75.5 breaths per minute | RR after 5 mg/kg IV Methylphenidate (mean) [1, 16]: 154 breaths per minute and 112.6 breaths per minute and 94.2 breaths per minute and 153.8 breaths per minute and 116.7 breaths per minute | changes in tidal volume ([1]; methylphenidate 5 mg/kg IV after droperidol 0.5 mg/kg IV, four rats, one increase, three decreases): 4-17% | changes in tidal volume ([1]; methylphenidate 5 mg/kg IV after normal saline, isoflurane 1.5%): the changes were small and inconsistent | changes in tidal volume ([1]; methylphenidate 5 mg/kg IV after normal saline, isoflurane 1.5%, listed as Methylphenidate): tidal volume remained essentially unchanged | P2CO2 after 5 mg/kg IV Methylphenidate (mean) [2, 17]: 35 mmHg | P2O2 after 5 mg/kg IV Methylphenidate (mean) [2, 17]: 241 mmHg | pH after 5 mg/kg IV Methylphenidate (mean) [2, 17]: 7.51 | calculated increase in alveolar ventilation (VA) ([2]; from paCO2 pre/post methylphenidate, assuming no change in baseline metabolism): 24±6% | median time to emergence (termination of isoflurane to return of righting) ([3]; methylphenidate 5 mg/kg IV five minutes before end of 45 min isoflurane 1.5%, n=12): 91 s | median difference in time to emergence versus normal saline ([3]; methylphenidate 5 mg/kg IV, isoflurane 1.5%): 200 s | median time to righting after methylphenidate ([4]; 0.5 mg/kg IV, continuous inhalation of isoflurane): 348 s | median time to righting after methylphenidate ([4]; 5 mg/kg IV, continuous inhalation of isoflurane): 181 s | median difference in time to righting between 0.5 and 5 mg/kg ([4]; continuous inhalation of isoflurane): 173 s | return of righting after droperidol pretreatment ([4]; droperidol 0.5 mg/kg IV five minutes before methylphenidate 5 mg/kg IV, continuous isoflurane, n=6): None of these animals had return of righting; also recorded: did not induce return of righting in any of the six animals | signs of arousal ([4]; methylphenidate 0.05 mg/kg IV, continuous isoflurane, six rats): no signs of arousal | return of righting (rats) ([4]; methylphenidate 0.5 mg/kg IV, continuous isoflurane): 11 of 12 | return of righting (rats) ([4]; methylphenidate 5 mg/kg IV after normal saline, continuous isoflurane): 11 of 12 | time to purposeful movements ([4]; methylphenidate 5 mg/kg, all 12 rats, continuous isoflurane): ≤ 30 s | Change in HR (mean) ([5]; after vs before methylphenidate 5 mg/kg IV): 6 beats per minute and 15 beats per minute | Change in HR (mean) [5, 18]: −14.2 beats per minute and −7.2 beats per minute and +13.9 beats per minute and +0.72 beats per minute and +0.5 beats per minute and −2.6 beats per minute | Change in MAP (mean) [5, 18]: +20.5 mmHg and +8.3 mmHg and +3.2 mmHg and −1.4 mmHg and +0.5 mmHg and +7.4 mmHg | HR after 5 mg/kg IV Methylphenidate (mean) [5]: 386.8 beats per minute and 383.3 beats per minute and 365.5 beats per minute and 360.0 beats per minute and 358.6 beats per minute | MAP after 5 mg/kg IV Methylphenidate (mean) [5]: 117.1 mmHg and 90.9 mmHg and 91.3 mmHg and 85.2 mmHg and 100.7 mmHg and 90.8 mmHg | rats with signs of arousal and restoration of righting within 4 min [6]: 5/6 | time to restoration of righting in the rat with delayed arousal response ([6]; one rat): 25 min | Ki [7]: 150 nM | reversal of isoflurane-induced general anesthesia [8]: rapidly reversed isoflurane-induced general anesthesia | time to emergence (restoration of righting) after a single dose of propofol [9]: 433 ± 24 s | EEG changes after methylphenidate with droperidol pretreatment ([10]; droperidol 0.5 mg/kg IV five minutes before methylphenidate 5 mg/kg IV): did not induce electroencephalogram changes consistent with arousal; also recorded: failed to induce these electroencephalogram changes; also recorded: the shift in peak power from delta to theta was absent | persistence of the active EEG pattern ([10]; methylphenidate 5 mg/kg IV): more than 15 minutes

COC(=O)C(c1ccccc1)C1CCCCN1 [D-MPH, D-threo-methylphenidate]
rats with restoration of consciousness [8]: 83% | reversal of isoflurane-induced general anesthesia [8]: rapidly reversed isoflurane-induced general anesthesia | rate of % recovery of consciousness / time to emergence, D-MPH compared with L-MPH [8]: at a quicker rate than L-MPH | rate of % recovery of consciousness / time to emergence, D-MPH compared with L-MPH ([8]; listed as D-MGH): faster | increase in plasma levels [11]: 5 fold

COC(=O)[C@@H](c1ccccc1)[C@@H]1CCCCN1 [L-MPH, L-threo-methylphenidate]
rats with restoration of consciousness [8]: 33% | reversal of isoflurane-induced general anesthesia [8]: rapidly reversed isoflurane-induced general anesthesia

O=C(CCCN1CC=C(n2c(=O)[nH]c3ccccc32)CC1)c1ccc(F)cc1 [droperidol]
effect on isoflurane potency [12]: no effect on isoflurane potency | purposeful movement in response to droperidol ([4]; droperidol 0.5 mg/kg IV, continuous isoflurane, n=6): None of the animals exhibited purposeful movement | EC50 for loss of righting [13]: 40 mg/kg | EEG pattern change after droperidol ([10]; droperidol 0.5 mg/kg IV): no appreciable change

FC(F)OC(Cl)C(F)(F)F (stereo not shown) [isoflurane]
dose for loss of righting [14]: 0.81% | dose of isoflurane sufficient to maintain loss of righting ([4]; inhaled, rats, mean±SD): 0.9%±0.1% and 0.9%
